Assay [1] has as its target T1, Met repressor (Escherichia coli) (UniProt C3SIU2).
T1 sequence (whole entry): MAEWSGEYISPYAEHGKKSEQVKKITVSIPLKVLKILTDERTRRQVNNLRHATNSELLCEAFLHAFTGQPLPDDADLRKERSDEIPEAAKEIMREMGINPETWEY
In words: Binding affinity to Escherichia coli metJ assessed as protein dimer-DNA complex formation using F-metC operator DNA by fluorescence anisotropy relative to 4-((((2R,3S,4R,5R)-5-(6-amino-9H-purin-9-yl)-3,4-dihydroxy-tetrahydrofuran-2-yl)methyl)(methyl)amino)-N-propylbutanamide. (In general: In fluorescence polarisation assays a small probe gives low polarisation when free and higher when bound to something large.)

Assay [2] concerns the target T1, Met repressor (Escherichia coli). Nature of the assay: Binding affinity to Escherichia coli metJ assessed as protein dimer-DNA complex formation using F-metC operator DNA by fluorescence anisotropy relative to 5'-[{(3''S)-4''-Benzylamino-3''-amino-4''-oxobutyl}dimethylamino]-5'-deoxyadenosine iodide ditrifluoroacetic acid salt.
In another assay the target is T2, Met repressor (Escherichia coli, UniProt C3SIU2).
T2 sequence (C3SIU2 whole entry): T1 sequence (whole entry)
In words: Binding affinity to Escherichia coli metJ in presence of operator DNA complex by filter binding study.

As to `CN(CCCC(=O)NCCCCCCNC(=O)CCCN(C)C[C@H]1O[C@@H](n2cnc3c(N)ncnc32)[C@H](O)[C@@H]1O)C[C@H]1O[C@@H](n2cnc3c(N)ncnc32)[C@H](O)[C@@H]1O`, the fold change (FC) in assay [1] is 21.

Regarding `CN(CCCC(=O)NCCCCn1nnc2c1CCCCCC2OCCNC(=O)CCCN(C)C[C@H]1O[C@@H](n2cnc3c(N)ncnc32)[C@H](O)[C@@H]1O)C[C@H]1O[C@@H](n2cnc3c(N)ncnc32)[C@H](O)[C@@H]1O` (stereo partly specified), the fold change (FC) in assay [1] is 13.

On to `CN(CCCC(=O)NCCOC1CCCCCc2c1nnn2CCNC(=O)CCCN(C)C[C@H]1O[C@@H](n2cnc3c(N)ncnc32)[C@H](O)[C@@H]1O)C[C@H]1O[C@@H](n2cnc3c(N)ncnc32)[C@H](O)[C@@H]1O` (mixture of isomers), for which the fold change (FC) in assay [1] was found to be 9.1.

Consider `C[N+](C)(CC[C@H](N)C(=O)NCc1ccc(CNC(=O)[C@@H](N)CC[N+](C)(C)C[C@H]2O[C@@H](n3cnc4c(N)ncnc43)[C@H](O)[C@@H]2O)cc1)C[C@H]1O[C@@H](n2cnc3c(N)ncnc32)[C@H](O)[C@@H]1O` (mixture of isomers), for which, in assay [2], the fold change (FC) was 2.4.

`C[N+](C)(CC[C@H](N)C(=O)NCc1cccc(CNC(=O)[C@@H](N)CC[N+](C)(C)C[C@H]2O[C@@H](n3cnc4c(N)ncnc43)[C@H](O)[C@@H]2O)c1)C[C@H]1O[C@@H](n2cnc3c(N)ncnc32)[C@H](O)[C@@H]1O` (mixture of isomers): in assay [2], the fold change (FC) amounted to 3.6.

In general, Kd refers to a measure of binding affinity in units of concentration. Consider `C[S+](CC[C@H](N)C(=O)[O-])C[C@H]1O[C@@H](n2cnc3c(N)ncnc32)[C@H](O)[C@@H]1O` (stereo partly specified) [ADEMETIONINE], for which, on Met repressor, the Kd came out at 4 nM.
